In article PMC5458257, “Identification of JL1037 as a novel, specific, reversible lysine-specific demethylase 1 inhibitor that induce apoptosis and autophagy of AML cells” (Oncotarget, 2017):

Assays:
Type in all cases: biochemical
MAO-A = target: T1, MAO-A (Homo sapiens, UniProt P21397); test: MAO-Glo luminescent enzyme assay (Promega V1401), selectivity test
T1 construct: gene MAOA
T1 sequence (P21397 1-527): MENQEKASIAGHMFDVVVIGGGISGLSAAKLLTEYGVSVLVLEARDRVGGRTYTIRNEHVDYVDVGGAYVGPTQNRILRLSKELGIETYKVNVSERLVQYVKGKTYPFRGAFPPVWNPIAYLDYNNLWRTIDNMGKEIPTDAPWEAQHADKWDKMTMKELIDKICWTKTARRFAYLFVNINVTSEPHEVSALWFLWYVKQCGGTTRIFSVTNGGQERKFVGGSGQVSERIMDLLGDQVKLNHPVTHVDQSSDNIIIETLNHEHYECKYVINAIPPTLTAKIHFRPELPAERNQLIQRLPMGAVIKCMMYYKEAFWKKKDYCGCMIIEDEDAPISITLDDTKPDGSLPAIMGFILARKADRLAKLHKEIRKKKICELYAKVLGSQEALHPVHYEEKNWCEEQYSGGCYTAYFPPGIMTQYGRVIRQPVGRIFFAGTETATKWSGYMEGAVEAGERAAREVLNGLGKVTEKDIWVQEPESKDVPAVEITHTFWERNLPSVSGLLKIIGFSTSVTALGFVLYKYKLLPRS
Source text: MAO-Glo luminescent enzyme assay (Promega V1401), selectivity test on MAO-A | JL1037 enzymatic inhibitory activity against LSD1, MAO-A and MAO-B.

[1] = target: T2, Lysine-specific demethylase 1 (LSD1) (Homo sapiens, UniProt O60341); test: LSD1 Fluorimetric Drug Discovery kit (Enzo BML-AK544), HRP-coupled, H3K4me2 substrate
T2 construct: gene KDM1A

MAO-B = target: T3, MAO-B (Homo sapiens, UniProt P27338); test: MAO-Glo luminescent enzyme assay (Promega V1401), selectivity test
T3 construct: gene MAOB
T3 sequence (P27338 2-520): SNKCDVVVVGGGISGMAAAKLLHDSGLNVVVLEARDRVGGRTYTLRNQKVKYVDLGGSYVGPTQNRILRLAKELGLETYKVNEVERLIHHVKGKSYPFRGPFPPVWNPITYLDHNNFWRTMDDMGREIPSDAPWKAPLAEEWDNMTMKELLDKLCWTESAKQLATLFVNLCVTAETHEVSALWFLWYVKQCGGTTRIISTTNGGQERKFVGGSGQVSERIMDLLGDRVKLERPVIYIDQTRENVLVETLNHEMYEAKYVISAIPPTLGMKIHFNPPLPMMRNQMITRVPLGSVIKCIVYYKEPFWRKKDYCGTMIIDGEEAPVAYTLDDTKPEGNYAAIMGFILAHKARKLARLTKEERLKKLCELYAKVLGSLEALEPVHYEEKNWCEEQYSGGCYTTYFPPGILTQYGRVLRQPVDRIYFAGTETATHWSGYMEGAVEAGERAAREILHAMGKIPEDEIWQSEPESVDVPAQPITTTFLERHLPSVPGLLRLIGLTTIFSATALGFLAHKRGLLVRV
Source text: MAO-Glo luminescent enzyme assay (Promega V1401), selectivity test on MAO-B | JL1037 enzymatic inhibitory activity against LSD1, MAO-A and MAO-B.

- IC50 (MAO-A): 1.92 µM
- IC50 [1]: 0.11 µM
- IC50 (MAO-B): 1.77 µM
Substance: JL1037
